How the values were obtained:
[1] = cited from earlier work
S1P1 receptor [2] = molecular target: T1, S1P1 receptor (Homo sapiens, UniProt P21453); conditions: cited from earlier work; for receptor degradation ability: Lucas et al; for activity v/s degradation margin: known S1P receptor modulators
EAE = assay: Animal model of multiple sclerosis (EAE induced with guinea pig MBP); type: in vivo, Lewis rats; conditions: EAE rats, oral every day until day 26
Protocol: The oral treatment with a compound of formula (I) was conducted in an animal model of multiple sclerosis. EAE was induced in female Lewis rats with guinea pig MBP (25 μg/rat).

S1P1 receptor [3] = molecular target: T1, S1P1 receptor; conditions: Lucas et al; read-out: EC50 at S1P1 receptor in a GTPγS assay; cited from earlier work
[4] = single dose, 2 mg or lower doses; cited from earlier work
[5] = Solubility in water / precipitation in buffer; type: physicochemical
Protocol: To solubilize the free base in water the novel technology AvignaSOL (N,N-Dimethyl hexanamide; patent number: U.S. Pat. No. 9,186,338B2) and its higher derivatives such as octinamide, decamide which improve the absorption of various poorly soluble drugs was used. AvignaSOL as 1-70% ww % assisted the solubilization of free base as 1 gm/20 mL of water. The solubility of free base in water assisted its direct use in various formulation such as creams, gels, solutions which together with the permeation enhancing effect will be harnessed to improve skin penetration and/or bioavailability and in altering the pharmacokinetics and pharmacodynamics profile of free base.
The AvignaSOL having a log P of ˜1.6 hinder the release by increasing the hydrophobicity of the delivery system. […] The combination of compound of formula I with other ingredients including sustained release enhancer with or without AvignaSOL were prepared as novel formulation techniques to improve and/or alter the pharmacokinetics and pharmacodynamics profile of compound of Formula I.

T1 sequence (P21453 whole entry): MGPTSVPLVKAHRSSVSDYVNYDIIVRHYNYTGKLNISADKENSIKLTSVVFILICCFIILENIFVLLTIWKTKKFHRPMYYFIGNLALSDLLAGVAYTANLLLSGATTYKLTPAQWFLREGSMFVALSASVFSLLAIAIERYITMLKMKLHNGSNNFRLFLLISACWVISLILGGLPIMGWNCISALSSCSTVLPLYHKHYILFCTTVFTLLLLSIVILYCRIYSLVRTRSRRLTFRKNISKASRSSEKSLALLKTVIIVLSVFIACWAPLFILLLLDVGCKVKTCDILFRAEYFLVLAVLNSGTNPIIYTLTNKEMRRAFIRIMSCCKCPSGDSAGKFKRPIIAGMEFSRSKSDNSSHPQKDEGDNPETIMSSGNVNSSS

## CCCCCC(=O)N(C)C [AvignaSOL, N,N-Dimethyl hexanamide]
[1]
  log P: ~1.6

## CCCCCCCCc1ccc(CCC(N)(CO)CO)cc1 [FTY720]
S1P1 receptor [2]
  receptor degradation ability: 0.34 nM
  activity v/s degradation margin: 0.17
EAE
  lymphopenia: induced at a high level over a long-term period

## CCCCCCCCCCCCC/C=C/[C@@H](O)[C@@H](N)COP(=O)(O)O [S1P]
S1P1 receptor [3]
  EC50: 1.2 nM
S1P1 receptor [2]
  receptor degradation ability: 302 nM

## CC(C)Oc1ncc(-c2nc(-c3cccc4c3ccn4CCCC(=O)O)no2)cc1Cl [GSK2018682]
[4]
  lymphopenia: minimal or no lymphopenia
  reduction in heart rate: ≥ 10 beats

## CCc1cc(/C(C)=N/OCc2ccc(C3CCCCC3)c(C(F)(F)F)c2)ccc1CN1CC(C(=O)O)C1 [BAF-312]
S1P1 receptor [2]
  activity v/s degradation margin: 2.95

## CCC/N=C1\S/C(=C\c2ccc(OC[C@H](O)CO)c(Cl)c2)C(=O)N1c1ccccc1C [Ponesimod]
S1P1 receptor [2]
  activity v/s degradation margin: < 2

## CCCOc1ccc(-c2nc(-c3ccc4oc(C(N)(CO)CO)cc4c3)no2)cc1Cl [compound of formula I free base]
[5]
  solubility in water: insoluble in water

Source: patent publication US20230094545A1, “S1P RECEPTOR MODULATORS” (AKAAL PHARMA PTY LTD, priority 2020, published 2023)
